pEC50, pIC50, pKi: −log10 of the molar value. Values after ≈ are worked out from the molar mass of the structure shown.
Legend:
[1] = target: Tyrosine-protein kinase JAK1 (Homo sapiens, UniProt P23458); assay: Binding affinity to human recombinant JAK1 assessed as inhibition constant incubated for 30 mins by microtiter plate reader analysis
[2] = system: A2780; assay: Antiproliferative activity against human A2780 cells assessed as inhibition of cell growth; type: functional, cell-based
[3] = target: Phosphatidylinositol 4,5-bisphosphate 3-kinase catalytic subunit alpha isoform (Homo sapiens, UniProt P42336); assay: Inhibition of PI3Kalpha (unknown origin)
Sequence of Phosphatidylinositol 4,5-bisphosphate 3-kinase catalytic subunit alpha isoform (P42336 whole entry, canonical isoform): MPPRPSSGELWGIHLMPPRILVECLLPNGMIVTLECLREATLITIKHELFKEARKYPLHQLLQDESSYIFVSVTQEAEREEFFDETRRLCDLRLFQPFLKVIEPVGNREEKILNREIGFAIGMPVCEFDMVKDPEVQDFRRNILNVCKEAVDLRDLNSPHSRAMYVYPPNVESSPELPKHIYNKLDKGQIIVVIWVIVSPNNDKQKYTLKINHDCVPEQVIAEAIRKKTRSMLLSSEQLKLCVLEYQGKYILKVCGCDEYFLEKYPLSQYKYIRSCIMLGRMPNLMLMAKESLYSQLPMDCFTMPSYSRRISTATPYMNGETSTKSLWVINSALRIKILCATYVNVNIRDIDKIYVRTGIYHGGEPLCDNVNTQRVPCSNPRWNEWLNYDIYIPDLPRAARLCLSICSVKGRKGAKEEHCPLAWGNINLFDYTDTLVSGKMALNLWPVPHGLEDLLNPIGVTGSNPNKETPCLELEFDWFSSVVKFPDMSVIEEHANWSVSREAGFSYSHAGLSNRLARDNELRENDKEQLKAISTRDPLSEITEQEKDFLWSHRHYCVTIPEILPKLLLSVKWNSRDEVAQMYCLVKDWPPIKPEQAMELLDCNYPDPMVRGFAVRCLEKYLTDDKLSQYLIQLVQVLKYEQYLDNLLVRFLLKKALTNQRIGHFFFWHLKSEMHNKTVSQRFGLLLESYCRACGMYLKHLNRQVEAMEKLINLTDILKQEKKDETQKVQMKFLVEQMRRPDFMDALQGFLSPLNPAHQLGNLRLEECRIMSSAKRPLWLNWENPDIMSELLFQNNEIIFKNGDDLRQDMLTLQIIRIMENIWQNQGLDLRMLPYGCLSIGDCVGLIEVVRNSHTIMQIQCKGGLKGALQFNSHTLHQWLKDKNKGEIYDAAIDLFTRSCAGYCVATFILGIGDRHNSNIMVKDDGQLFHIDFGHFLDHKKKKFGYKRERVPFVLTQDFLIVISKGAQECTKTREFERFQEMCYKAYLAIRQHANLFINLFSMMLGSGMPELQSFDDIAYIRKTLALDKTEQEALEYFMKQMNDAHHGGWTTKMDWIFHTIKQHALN

[4] = Inhibition of human CK1 delta incubated for 2 hrs by scintillation counter analysis
[5] = Induction of circadian rhythm signaling pathway in rat fibroblast cells assessed as prolongation of circadian period upto 1 hr by scintillation counter analysis; type: functional, cell-based
[6] = species: Rattus norvegicus; assay: Inhibition of apomorphine-induced stereotyped behavior rat model; type: functional, organism-based
[7] = target: Corticotropin-releasing factor receptor 1 (Homo sapiens, UniProt P34998); assay: Inhibition of human recombinant CRF1 in HEK cell line incubated for 2 hrs by MicroBeta scintillation counter method; type: cell-based
Sequence of Corticotropin-releasing factor receptor 1 (P34998 whole entry): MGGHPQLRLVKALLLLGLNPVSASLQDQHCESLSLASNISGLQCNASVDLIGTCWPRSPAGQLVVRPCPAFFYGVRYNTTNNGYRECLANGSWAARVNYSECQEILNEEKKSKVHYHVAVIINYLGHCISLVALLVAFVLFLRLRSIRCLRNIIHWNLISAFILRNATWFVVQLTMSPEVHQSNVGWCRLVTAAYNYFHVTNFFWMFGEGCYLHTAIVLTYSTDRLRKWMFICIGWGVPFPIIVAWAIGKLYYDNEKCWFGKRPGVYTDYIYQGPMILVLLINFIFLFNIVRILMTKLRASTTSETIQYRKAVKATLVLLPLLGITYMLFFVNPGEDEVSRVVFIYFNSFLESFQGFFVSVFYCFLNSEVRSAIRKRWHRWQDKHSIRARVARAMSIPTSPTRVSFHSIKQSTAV

[8] = system: Staphylococcus aureus; assay: Antibacterial activity against methicillin-resistant Staphylococcus aureus N133; type: functional
[9] = system: Staphylococcus aureus; assay: Antibacterial activity against methicillin-resistant Staphylococcus aureus OFU4; type: functional
[10] = system: Staphylococcus aureus; assay: Antibacterial activity against methicillin-resistant Staphylococcus aureus J-108; type: functional
[11] = target: Phosphatidylinositol 4,5-bisphosphate 3-kinase catalytic subunit delta isoform (Homo sapiens, UniProt O00329); assay: Inhibition of PI3Kdelta (unknown origin)
Sequence of Phosphatidylinositol 4,5-bisphosphate 3-kinase catalytic subunit delta isoform (O00329 whole entry, canonical isoform): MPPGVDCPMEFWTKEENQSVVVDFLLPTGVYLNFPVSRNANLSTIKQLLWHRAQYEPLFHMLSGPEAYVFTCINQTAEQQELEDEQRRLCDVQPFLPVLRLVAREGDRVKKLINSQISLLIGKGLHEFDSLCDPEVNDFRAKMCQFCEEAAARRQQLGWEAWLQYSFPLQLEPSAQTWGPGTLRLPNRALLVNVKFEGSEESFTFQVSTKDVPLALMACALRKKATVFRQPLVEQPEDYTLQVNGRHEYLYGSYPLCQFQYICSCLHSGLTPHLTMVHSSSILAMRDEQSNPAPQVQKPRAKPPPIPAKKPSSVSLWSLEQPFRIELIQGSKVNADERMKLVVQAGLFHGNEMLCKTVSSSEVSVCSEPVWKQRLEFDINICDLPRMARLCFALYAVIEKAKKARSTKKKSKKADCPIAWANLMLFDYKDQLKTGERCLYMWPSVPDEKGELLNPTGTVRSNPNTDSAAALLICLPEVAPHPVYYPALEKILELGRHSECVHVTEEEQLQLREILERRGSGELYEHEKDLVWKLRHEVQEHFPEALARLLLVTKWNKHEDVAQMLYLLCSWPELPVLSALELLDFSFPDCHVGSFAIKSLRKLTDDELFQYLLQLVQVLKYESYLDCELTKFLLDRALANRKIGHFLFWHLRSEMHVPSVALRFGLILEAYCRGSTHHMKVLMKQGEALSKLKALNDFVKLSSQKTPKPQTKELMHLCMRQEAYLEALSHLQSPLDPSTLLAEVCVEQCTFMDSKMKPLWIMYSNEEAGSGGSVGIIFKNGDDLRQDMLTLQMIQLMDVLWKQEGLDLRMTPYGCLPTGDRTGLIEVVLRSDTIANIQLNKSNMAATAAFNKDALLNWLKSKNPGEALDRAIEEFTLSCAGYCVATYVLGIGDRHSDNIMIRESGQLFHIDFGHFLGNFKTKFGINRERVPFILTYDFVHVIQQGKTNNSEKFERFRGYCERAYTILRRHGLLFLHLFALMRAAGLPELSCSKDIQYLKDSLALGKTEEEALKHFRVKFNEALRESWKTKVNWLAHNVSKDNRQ

[12] = Inhibition of Tau (unknown origin) phosphorylation
[13] = species: Mus musculus; assay: Effect on locomotor activity in mouse assessed as inhibition of locomotor activity relative to control; type: functional
[14] = target: Gamma-aminobutyric acid receptor subunit alpha-1 (Homo sapiens) (UniProt P14867); assay: Inhibition of GABA-A alpha1 receptor (unknown origin) relative to control; settings: concentration not given here
Sequence of Gamma-aminobutyric acid receptor subunit alpha-1 (Homo sapiens) (P14867 whole entry): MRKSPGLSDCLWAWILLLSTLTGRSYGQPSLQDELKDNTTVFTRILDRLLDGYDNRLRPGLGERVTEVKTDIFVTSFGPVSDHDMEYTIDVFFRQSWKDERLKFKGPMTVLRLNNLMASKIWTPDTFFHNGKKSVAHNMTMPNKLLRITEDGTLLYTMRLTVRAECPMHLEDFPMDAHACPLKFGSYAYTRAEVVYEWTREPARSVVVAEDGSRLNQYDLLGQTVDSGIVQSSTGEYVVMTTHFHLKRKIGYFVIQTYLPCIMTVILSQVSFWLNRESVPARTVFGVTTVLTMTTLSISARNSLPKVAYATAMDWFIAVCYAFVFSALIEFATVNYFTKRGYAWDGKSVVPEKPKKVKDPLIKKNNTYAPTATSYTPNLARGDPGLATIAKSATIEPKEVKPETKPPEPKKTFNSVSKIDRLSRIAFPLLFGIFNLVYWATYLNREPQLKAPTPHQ

[15] = target: Gamma-aminobutyric acid receptor subunit alpha-2 (Homo sapiens) (UniProt P47869); assay: Inhibition of GABA-A alpha2 receptor (unknown origin) relative to control; settings: concentration not given here
[16] = target: cAMP and cAMP-inhibited cGMP 3',5'-cyclic phosphodiesterase 10A (Homo sapiens, UniProt Q9Y233); assay: Inhibition of PDE10A2 (unknown origin)
[17] = target: 3',5'-cyclic-AMP phosphodiesterase 4A (Homo sapiens, UniProt P27815); assay: Inhibition of human recombinant PDE4A incubated for 30 mins by Scintillation Proximity Assay
[18] = target: 3',5'-cyclic-AMP phosphodiesterase 4B (Homo sapiens, UniProt Q07343); assay: Inhibition of human recombinant PDE4B incubated for 30 mins by Scintillation Proximity Assay
Sequence of 3',5'-cyclic-AMP phosphodiesterase 4B (Q07343 whole entry): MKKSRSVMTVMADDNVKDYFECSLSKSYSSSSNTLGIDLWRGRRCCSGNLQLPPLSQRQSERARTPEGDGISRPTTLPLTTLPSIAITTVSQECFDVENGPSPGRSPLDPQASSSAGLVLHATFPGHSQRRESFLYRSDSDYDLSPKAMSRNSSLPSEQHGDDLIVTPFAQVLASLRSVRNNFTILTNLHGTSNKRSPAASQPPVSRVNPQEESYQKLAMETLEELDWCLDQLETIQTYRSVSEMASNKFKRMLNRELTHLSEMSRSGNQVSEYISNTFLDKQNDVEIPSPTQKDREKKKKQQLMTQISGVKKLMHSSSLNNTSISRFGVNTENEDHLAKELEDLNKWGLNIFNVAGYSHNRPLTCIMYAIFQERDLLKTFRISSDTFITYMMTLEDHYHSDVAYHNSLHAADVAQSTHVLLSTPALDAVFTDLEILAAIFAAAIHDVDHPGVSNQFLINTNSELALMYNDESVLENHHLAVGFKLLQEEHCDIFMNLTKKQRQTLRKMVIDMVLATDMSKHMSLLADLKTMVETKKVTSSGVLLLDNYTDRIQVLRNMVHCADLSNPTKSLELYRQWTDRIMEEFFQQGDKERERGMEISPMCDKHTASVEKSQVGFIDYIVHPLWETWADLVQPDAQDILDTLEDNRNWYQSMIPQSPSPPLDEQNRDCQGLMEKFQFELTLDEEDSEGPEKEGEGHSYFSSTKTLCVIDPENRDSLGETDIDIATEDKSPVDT

[19] = target: T1, NAD-dependent protein deacetylase sirtuin-1 (Homo sapiens) (UniProt Q96EB6); assay: Inhibition of SIRT1 (unknown origin) incubated for 25 mins by Trp mass spectrometry assay
T1 sequence (whole entry): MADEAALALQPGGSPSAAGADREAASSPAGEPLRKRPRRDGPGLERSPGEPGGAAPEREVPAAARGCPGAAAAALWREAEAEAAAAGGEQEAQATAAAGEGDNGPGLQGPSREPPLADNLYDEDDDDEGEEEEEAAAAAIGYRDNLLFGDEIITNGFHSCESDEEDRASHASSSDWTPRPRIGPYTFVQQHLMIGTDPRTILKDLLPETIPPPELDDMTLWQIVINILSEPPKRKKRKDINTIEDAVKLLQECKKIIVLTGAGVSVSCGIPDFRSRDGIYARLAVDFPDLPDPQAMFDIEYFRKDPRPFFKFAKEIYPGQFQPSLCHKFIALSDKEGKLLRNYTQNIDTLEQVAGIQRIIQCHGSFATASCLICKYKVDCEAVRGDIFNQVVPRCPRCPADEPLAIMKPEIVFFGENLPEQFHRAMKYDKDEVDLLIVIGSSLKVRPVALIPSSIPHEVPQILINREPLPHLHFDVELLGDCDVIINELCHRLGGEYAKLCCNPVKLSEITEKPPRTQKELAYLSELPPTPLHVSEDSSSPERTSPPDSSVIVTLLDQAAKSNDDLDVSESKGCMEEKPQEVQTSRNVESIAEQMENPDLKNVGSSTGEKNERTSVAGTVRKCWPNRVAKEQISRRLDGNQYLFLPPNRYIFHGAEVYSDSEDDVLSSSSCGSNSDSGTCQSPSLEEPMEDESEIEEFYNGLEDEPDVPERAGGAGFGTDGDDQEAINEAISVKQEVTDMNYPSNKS

[20] = target: T1, NAD-dependent protein deacetylase sirtuin-1 (Homo sapiens); assay: Inhibition of SIRT1 (unknown origin) incubated for 25 mins by TAMRA based mass spectrometry assay
[21] = system: K562; assay: cells; settings: Homo sapiens
Description: Antiproliferative activity against human K562 cells

[22] = system: PC-3; assay: cells; settings: Homo sapiens
Description: Antiproliferative activity against human PC-3 cells

[23] = target: Phosphatidylinositol 4,5-bisphosphate 3-kinase catalytic subunit beta isoform (Homo sapiens, UniProt P42338); assay: Inhibition of PI3Kbeta (unknown origin)
Sequence of Phosphatidylinositol 4,5-bisphosphate 3-kinase catalytic subunit beta isoform (P42338 whole entry, canonical isoform): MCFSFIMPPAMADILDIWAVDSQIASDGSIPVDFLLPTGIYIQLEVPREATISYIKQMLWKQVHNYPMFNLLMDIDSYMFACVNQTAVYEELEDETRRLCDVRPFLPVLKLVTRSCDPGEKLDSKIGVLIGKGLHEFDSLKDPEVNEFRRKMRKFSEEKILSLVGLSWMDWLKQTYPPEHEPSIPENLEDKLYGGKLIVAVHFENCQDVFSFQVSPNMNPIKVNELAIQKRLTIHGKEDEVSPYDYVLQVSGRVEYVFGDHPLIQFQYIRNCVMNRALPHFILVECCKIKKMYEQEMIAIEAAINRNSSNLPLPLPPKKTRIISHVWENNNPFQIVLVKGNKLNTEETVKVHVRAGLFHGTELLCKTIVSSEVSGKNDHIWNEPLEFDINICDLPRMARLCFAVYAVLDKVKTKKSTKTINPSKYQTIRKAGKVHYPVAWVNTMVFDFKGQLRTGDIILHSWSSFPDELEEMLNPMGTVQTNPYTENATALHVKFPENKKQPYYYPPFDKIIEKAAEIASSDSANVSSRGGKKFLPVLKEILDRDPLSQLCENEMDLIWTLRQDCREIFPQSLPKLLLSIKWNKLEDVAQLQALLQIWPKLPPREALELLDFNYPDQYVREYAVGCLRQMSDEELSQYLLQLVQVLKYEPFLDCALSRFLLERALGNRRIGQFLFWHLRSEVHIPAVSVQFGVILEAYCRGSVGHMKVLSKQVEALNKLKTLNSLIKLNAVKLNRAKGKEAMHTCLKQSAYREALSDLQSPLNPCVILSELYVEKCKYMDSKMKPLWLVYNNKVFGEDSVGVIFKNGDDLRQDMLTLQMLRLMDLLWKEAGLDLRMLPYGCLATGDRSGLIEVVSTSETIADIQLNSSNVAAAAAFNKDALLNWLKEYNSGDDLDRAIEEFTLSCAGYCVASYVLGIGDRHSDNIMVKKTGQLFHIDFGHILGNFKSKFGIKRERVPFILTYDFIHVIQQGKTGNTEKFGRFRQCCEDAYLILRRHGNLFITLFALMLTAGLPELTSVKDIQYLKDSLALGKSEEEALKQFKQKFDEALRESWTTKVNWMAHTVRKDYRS

[24] = target: Phosphatidylinositol 4,5-bisphosphate 3-kinase catalytic subunit gamma isoform (Homo sapiens, UniProt P48736); assay: Inhibition of PI3Kgamma (unknown origin)
[25] = system: rhinovirus B14; assay: Antiviral activity against Human rhinovirus 14; type: functional, organism-based; settings: Rhinovirus B
[26] = target: GABA-A receptor; anion channel; assay: Displacement of [3H]diazepam from GABA-A receptor in rat brain membrane; type: cell membranes

Q: With `CSc1ccc(OC(F)F)c(-c2n[nH]cc2NC(=O)c2cnc3cccnn23)c1` as the molecule, how does the pKi [1] read?
A: Its pKi is 10.00.

Q: With `CC(=O)Nc1cn2nc(-c3cnc(N)c(-c4ccccc4OC(F)(F)F)c3)ccc2n1` as the molecule, how does the pIC50 [2] read?
A: Its pIC50 is greater than 6.00.

Q: What about the pIC50 [3] of the same molecule?
A: Its pIC50 is greater than 6.00.

Q: With `CC(C)N1CCN(c2ccc3nc(-c4ccnc(F)c4)c(-c4ccncc4)n3n2)CC1` as the molecule, how does the pIC50 [4] read?
A: The pIC50 was 6.54.

Q: What about the pEC50 [5] of the same molecule?
A: Its pEC50 is 8.22.

Q: Which EC50 [6] does the source give for `O=C(CCCN1CCC(O)(c2ccc(Cl)cc2)CC1)c1ccc(F)cc1` [HALOPERIDOL] here?
A: Its EC50 is 0.2 mg/kg.

Q: With `CCC(CC)c1cc(C)nn2c(-c3sc4ccc(F)cc4c3C)c(C)nc12` as the molecule, how does the pIC50 [7] read?
A: Its pIC50 is 7.79.

Q: Which results are given for `CO/N=C(\C(=O)N[C@@H]1C(=O)N2C(C(=O)[O-])=C(C[n+]3ccn4ncccc43)CS[C@H]12)c1nsc(N)n1` [CEFOZOPRAN]?
A: MIC50 [8]: 25 µg/mL (≈ 48.5 µM); MIC50 [9]: 100 µg/mL (≈ 194 µM); MIC50 [10]: 25 µg/mL (≈ 48.5 µM)

Q: With `COc1ccc(-c2ccc3nc(C)c(-c4cnc(N)c(C(F)(F)F)c4)n3n2)cc1OC` as the molecule, how does the pIC50 [11] read?
A: The pIC50 was 7.15.

Q: What about the pIC50 [3] of the same molecule?
A: The pIC50 was 8.22.

Q: With `O=C(Nc1cccnc1)c1ccnn2cc(-c3ccccc3)nc12` as the molecule, how does the pIC50 [12] read?
A: The pIC50 was 6.18.

Q: Which “inhibition (INH)” value [13] does the source give for `CCCN(CCC)C(=O)Cc1c(-c2ccc(C)cc2)nc2ccc(Cl)nn12` here?
A: Its value is 38.4%.

Q: What about the inhibition [14] of the same molecule?
A: The inhibition was 100%.

Q: What about the inhibition [15] of the same molecule?
A: The inhibition was 98.6%.

Q: For `Cc1nc2c(N3CCOCC3)ccnn2c1-c1ccc(C2(O)CCOCC2)nc1`, which EC50 [6] is on record?
A: The EC50 was 0.31 mg/kg.

Q: And the pIC50 [16]?
A: The pIC50 was 7.57.

Q: With `O=C(NC1CC1)c1nc2cccnn2c1-c1cc(F)c(Cl)c(F)c1` as the molecule, how does the pIC50 [17] read?
A: The pIC50 was greater than 9.31.

Q: And the pIC50 [18]?
A: Its pIC50 is 8.80.

Q: With `O=C(Nc1nccs1)c1ccnn2cc(-c3ccccc3C(F)(F)F)nc12` as the molecule, how does the EC150 [19] read?
A: Its EC150 is less than 1 µM.

Q: What about the EC150 [20] of the same molecule?
A: The EC150 was less than 1 µM.

Q: With `CN1CCC(CNc2ccc3ncc(-c4cccc(OC(F)(F)F)c4)n3n2)CC1` [SGI-1776] as the molecule, how does the pIC50 [21] read?
A: The pIC50 was 5.64.

Q: What about the pIC50 [22] of the same molecule?
A: The pIC50 was 5.32.

Q: With `Cc1nc2c(N)cc(N3CCOCC3)nn2c1Cc1cccc(F)c1C1CCNCC1` as the molecule, how does the pIC50 [11] read?
A: Its pIC50 is 6.43.

Q: What about the pIC50 [23] of the same molecule?
A: The pIC50 was 9.30.

Q: And the pIC50 [3]?
A: The pIC50 was 5.56.

Q: And the pIC50 [24]?
A: Its pIC50 is 5.70.

Q: With `Cc1nc2ccc(N3CCNCC3)nn2c1-c1ccncc1` as the molecule, how does the pIC50 [4] read?
A: The pIC50 was greater than 9.00.

Q: And the pEC50 [5]?
A: The pEC50 was 7.70.

Q: With `Nc1nc2ccc(/C(=N\O)c3ccccc3)nn2c1-c1ccc(F)cc1` as the molecule, how does the pIC50 [25] read?
A: Its pIC50 is 6.82.

Q: With `CSc1ccc2nc(-c3ccc4c(c3)COC4)c(CNC(=O)c3ccccc3)n2n1` as the molecule, how does the pIC50 [26] read?
A: The pIC50 was 8.70.

Q: With `CCN(CC)c1cc(C)nn2c(-c3sc4ccc(F)cc4c3C)c(C)nc12` as the molecule, how does the pIC50 [7] read?
A: Its pIC50 is 6.92.
